Our source for the POC and IC50 values is US10125134B2 (Mirati Therapeutics, Inc., priority 2016, dated 2018).

Assay [1] has as its target KRas G12C (Homo sapiens, UniProt P01116, C118S/C51S/C80L/G12C). In words: KRas G12C Modification Assay (LCMS detection of covalent adduct). In kind it is binding. The conditions noted are these: normalized percent of control, tested at 5 μM concentration for 3 hours. Summed up:
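Cys-light KRas G12C mutant protein incubated with compound in K-Ras assay buffer, reactions quenched at set time points with 25 mM acetic acid and analysed by intact-protein LC/MS on a C-3 column. Deconvoluted mass heights expressed as percent of control (POC) relative to compound-free protein.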

For assay [2], the system named is NCI-H358 cells (express KRas G12C), Phospho-ERK. As to the kind of experiment: Cellular inhibition of KRas G12C: Phospho-ERK in NCI-H358 cells. It counts as cell-based. The conditions noted are these: pERK(Thr202/Tyr204) normalized with GAPDH, NCI-H358 cells, 3 hours, read-out: IC50. In a few lines: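 IC50 derived by 4-parameter fit of GAPDH-normalized pERK(Thr202/Tyr204) signal, as percent of DMSO control. Signal came from in-cell immunodetection with infrared secondaries after 3 h compound exposure of KRas G12C NCI-H358 cells at 0.5% DMSO.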

By IC50 is commonly meant the midpoint of a concentration-inhibition curve.

Each structure is given as a SMILES string. Like-named read-outs stand apart in the source and are kept apart here.

As for `C=CC(=O)N1CCN(c2nc(OC[C@@H]3CCCN3C)nc3c2CCN(c2cccc4ccc(Cl)cc24)C3)CC1CC#N` (stereo partly drawn) [Example 286, 2-(1-acryloyl-4-(7-(7-chloronaphthalen-1-yl)-2-(((S)-1-methylpyrrolidin-2-yl)methoxy)-5,6,7,8-tetrahydropyrido[3,4-d]pyrimidin-4-yl)piperazin-2-yl)acetonitrile], the POC result in assay [1] is given as “C (“C”>50% POC)”. For the same molecule, the 50% inhibitory concentration (IC50) in assay [2] is 0.0001 to 1 µM.

On to `C=CC(=O)N1CCN(c2nc(OC[C@@H]3CCCN3C)nc3c2CCN(c2cccc4c(F)cccc24)C3)CC1CC#N` (stereo partly drawn) [Example 287, 2-[4-[7-(5-fluoro-1-naphthyl)-2-[[(2S)-1-methylpyrrolidin-2-yl]methoxy]-6,8-dihydro-5H-pyrido[3,4-d]pyrimidin-4-yl]-1-prop-2-enoyl-piperazin-2-yl]acetonitrile], for which, in assay [1], the POC entry is given as “C (“C”>50% POC)”. Besides, the IC50 in assay [2] was 0.0001 to 1 µM.

For `C=CC(=O)N1CCN(c2nc(OC[C@@H]3CCCN3C)nc3c2CCN(c2cccc4ccc(OC)cc24)C3)CC1CC#N` (stereo partly drawn) [Example 288, 2-[4-[7-(7-methoxy-1-naphthyl)-2-[[(2S)-1-methylpyrrolidin-2-yl]methoxy]-6,8-dihydro-5H-pyrido[3,4-d]pyrimidin-4-yl]-1-prop-2-enoyl-piperazin-2-yl]acetonitrile], the POC entry in assay [1] is given as “A (“A”≤25% POC)”. Moreover, the IC50 in assay [2] is > 1 µM.

Consider `C=CC(=O)N1CCN(c2nc(OC[C@@H]3CCCN3C)nc3c2CCN(c2nccc4ccccc24)C3)CC1CC#N` (stereo partly drawn) [Example 289, 2-[4-[7-(1-isoquinolyl)-2-[[(2S)-1-methylpyrrolidin-2-yl]methoxy]-6,8-dihydro-5H-pyrido[3,4-d]pyrimidin-4-yl]-1-prop-2-enoyl-piperazin-2-yl]acetonitrile], for which the POC result in assay [1] was “C (“C”>50% POC)”. In assay [2], the IC50 was > 1 µM.

On to `C=CC(=O)N1CCN(c2nc(OC[C@@H]3CCCN3C)nc3c2CCN(c2cccc4cc(F)ccc24)C3)CC1CC#N` (stereo partly drawn) [Example 290, 2-[4-[7-(6-fluoro-1-naphthyl)-2-[[(2S)-1-methylpyrrolidin-2-yl]methoxy]-6,8-dihydro-5H-pyrido[3,4-d]pyrimidin-4-yl]-1-prop-2-enoyl-piperazin-2-yl]acetonitrile], for which the POC result in assay [1] is recorded as “C (“C”>50% POC)”. Moreover, in assay [2], the 50% inhibitory concentration (IC50) was 0.0001 to 1 µM.

Consider `C=CC(=O)N1CCN(c2nc(OC[C@@H]3CCCN3C)nc3c2CCN(c2cncc4ccccc24)C3)CC1CC#N` (stereo partly drawn) [Example 291, 2-[4-[7-(4-isoquinolyl)-2-[[(2S)-1-methylpyrrolidin-2-yl]methoxy]-6,8-dihydro-5H-pyrido[3,4-d]pyrimidin-4-yl]-1-prop-2-enoyl-piperazin-2-yl]acetonitrile], for which the POC result in assay [1] is “C (“C”>50% POC)”. Moreover, the IC50 in assay [2] was 0.0001 to 1 µM.

For `C=CC(=O)N1CCN(c2nc(OC[C@@H]3CCCN3C)nc3c2CCN(c2cccc4cnccc24)C3)CC1CC#N` (stereo partly drawn) [Example 292, 2-[4-[7-(5-isoquinolyl)-2-[[(2S)-1-methylpyrrolidin-2-yl]methoxy]-6,8-dihydro-5H-pyrido[3,4-d]pyrimidin-4-yl]-1-prop-2-enoyl-piperazin-2-yl]acetonitrile], in assay [1], the POC entry is listed as “A (“A”≤25% POC)”. Also, the IC50 in assay [2] was > 1 µM.

Take `C/C=C/C(=O)N1CCN(c2nc(OC[C@@H]3CCCN3C)nc3c2CCN(c2cccc4ccccc24)C3)CC1CC#N` (stereo partly drawn) [Example 293, 2-[1-[(E)-but-2-enoyl]-4-[2-[[(2S)-1-methylpyrrolidin-2-yl]methoxy]-7-(1-naphthyl)-6,8-dihydro-5H-pyrido[3,4-d]pyrimidin-4-yl]piperazin-2-yl]acetonitrile]: the POC entry in assay [1] was “C (“C”>50% POC)”. Besides, the 50% inhibitory concentration (IC50) in assay [2] was in the range of 0.0001 to 1 µM.

For the molecule `C=CC(=O)N1CCN(c2nc(OC[C@@H]3CCCN3C)nc3c2CCN(c2cccc4ncccc24)C3)CC1CC#N` (stereo partly drawn) [Example 294, 2-[4-[2-[[(2S)-1-methylpyrrolidin-2-yl]methoxy]-7-(5-quinolyl)-6,8-dihydro-5H-pyrido[3,4-d]pyrimidin-4-yl]-1-prop-2-enoyl-piperazin-2-yl]acetonitrile], the POC entry in assay [1] is reported as “C (“C”>50% POC)”. Further, the IC50 in assay [2] was > 1 µM.

Turning to `C=CC(=O)N1CCN(c2nc(OC[C@@H]3CCCN3C)nc3c2CCN(c2ccnc4ccccc24)C3)CC1CC#N` (stereo partly drawn) [Example 295, 2-[4-[2-[[(2S)-1-methylpyrrolidin-2-yl]methoxy]-7-(4-quinolyl)-6,8-dihydro-5H-pyrido[3,4-d]pyrimidin-4-yl]-1-prop-2-enoyl-piperazin-2-yl]acetonitrile], the POC result in assay [1] (5 µM) is “A (“A”≤25% POC)”. Also, in assay [2], the concentration for half-maximal inhibition (IC50) was > 1 µM.

As for `C=CC(=O)N1CCN(c2nc(OCCN(C)C)nc3c2CCN(c2ccccc2C(F)(F)F)C3)CC1CC#N` (stereo not drawn) [Example 296, 2-[4-[2-[2-(dimethylamino)ethoxy]-7-[2-(trifluoromethyl)phenyl]-6,8-dihydro-5H-pyrido[3,4-d]pyrimidin-4-yl]-1-prop-2-enoyl-piperazin-2-yl]acetonitrile], the POC result in assay [1] was “C (“C”>50% POC)”. The half-inhibitory concentration (IC50) in assay [2] lay in the range of 0.0001 to 1 µM.

Turning to `C=CC(=O)N1CCN(c2nc(OCCCN3C[C@H]4C[C@@H]3CO4)nc3c2CCN(c2ccccc2C(F)(F)F)C3)CC1CC#N` (stereo partly drawn) [Example 297, 2-[4-[2-[3-[(1R,4R)-2-oxa-5-azabicyclo[2.2.1]heptan-5-yl]propoxy]-7-[2-(trifluoromethyl)phenyl]-6,8-dihydro-5H-pyrido[3,4-d]pyrimidin-4-yl]-1-prop-2-enoyl-piperazin-2-yl]acetonitrile], the POC entry in assay [1] is “C (“C”>50% POC)”. For the same molecule, the IC50 in assay [2] was 0.0001 to 1 µM.

For `C=CC(=O)N1CCN(c2nc(OC[C@@H]3CCN(C)C3)nc3c2CCN(c2ccccc2C(F)(F)F)C3)CC1CC#N` (stereo partly drawn) [Example 298, 2-(1-acryloyl-4-(2-(((R)-1-methylpyrrolidin-3-yl)methoxy)-7-(2-(trifluoromethyl)phenyl)-5,6,7,8-tetrahydropyrido[3,4-d]pyrimidin-4-yl)piperazin-2-yl)acetonitrile], the POC entry in assay [1] was “C (“C”>50% POC)”. Also, the 50% inhibitory concentration (IC50) in assay [2] lay within 0.0001 to 1 µM.

As for `C=CC(=O)N1CCN(c2nc(OC[C@H]3CCCN3C)nc3c2CCN(c2ccccc2C(F)(F)F)C3)CC1CC#N` (stereo partly drawn) [Example 299, 2-[4-[2-[[(2R)-1-methylpyrrolidin-2-yl]methoxy]-7-[2-(trifluoromethyl)phenyl]-6,8-dihydro-5H-pyrido[3,4-d]pyrimidin-4-yl]-1-prop-2-enoyl-piperazin-2-yl]acetonitrile], in assay [1], the POC result is reported as “C (“C”>50% POC)”. The IC50 in assay [2] fell in the range of 0.0001 to 1 µM.

As to `C=CC(=O)N1CCN(c2nc(OCCN(CC)CC)nc3c2CCN(c2ccccc2C(F)(F)F)C3)CC1CC#N` (stereo not drawn) [Example 300, 2-[4-[2-[2-(diethylamino)ethoxy]-7-[2-(trifluoromethyl)phenyl]-6,8-dihydro-5H-pyrido[3,4-d]pyrimidin-4-yl]-1-prop-2-enoyl-piperazin-2-yl]acetonitrile], in assay [1], the POC entry is given as “C (“C”>50% POC)”. The half-inhibitory concentration (IC50) in assay [2] lay in the range of 0.0001 to 1 µM.

In the case of `C=CC(=O)N1CCN(c2nc(OC[C@@H]3CCC(C)(C)N3C)nc3c2CCN(c2cccc4ccccc24)C3)CC1CC#N` (stereo partly drawn) [Example 301, 2-[4-[7-(1-naphthyl)-2-[[(2S)-1,5,5-trimethylpyrrolidin-2-yl]methoxy]-6,8-dihydro-5H-pyrido[3,4-d]pyrimidin-4-yl]-1-prop-2-enoyl-piperazin-2-yl]acetonitrile], the POC result in assay [1] is reported as “C (“C”>50% POC)”. Moreover, the IC50 in assay [2] (Homo sapiens, NCI-H358, 3 h) lay within 0.0001 to 1 µM.

Regarding `C=CC(=O)N1CCN(c2nc(OC[C@@H]3CCCN3C)nc3c2CCN(c2cccc4ccc(F)cc24)C3)CC1CC#N` (stereo partly drawn) [Example 302], in assay [1], the POC result was “C (“C”>50% POC)”. Besides, in assay [2] (Homo sapiens, NCI-H358, 3 h), the IC50 fell in the range of 0.0001 to 1 µM.

As to `C=CC(=O)N1CCN(c2nc(OCCN3CCCCC3)nc3c2CCN(c2cccc4ccccc24)C3)CC1CC#N` (stereo not drawn) [Example 303, 2-[4-[7-(1-naphthyl)-2-[2-(1-piperidyl)ethoxy]-6,8-dihydro-5H-pyrido[3,4-d]pyrimidin-4-yl]-1-prop-2-enoyl-piperazin-2-yl]acetonitrile], the POC entry in assay [1] is recorded as “C (“C”>50% POC)”. Also, the IC50 in assay [2] (Homo sapiens, NCI-H358, 3 h) lay in the range of 0.0001 to 1 µM.

As for `C=CC(=O)N1CCN(c2nc(OC[C@H]3CCCN3CCO)nc3c2CCN(c2cccc4ccccc24)C3)CC1CC#N` (stereo partly drawn) [Example 304, 2-[4-[2-[[(2R)-1-(2-hydroxyethyl)pyrrolidin-2-yl]methoxy]-7-(1-naphthyl)-6,8-dihydro-5H-pyrido[3,4-d]pyrimidin-4-yl]-1-prop-2-enoyl-piperazin-2-yl]acetonitrile], in assay [1], the POC result is reported as “C (“C”>50% POC)”. Besides, the concentration for half-maximal inhibition (IC50) in assay [2] (Homo sapiens, NCI-H358, 3 h) lay in the range of 0.0001 to 1 µM.

On to `C=CC(=O)N1CCN(c2nc(OC[C@@H]3CCCN3C)nc3c2CCN(c2cnccc2C#N)C3)C[C@@H]1CC#N` [Example 305, 3-(4-((S)-4-acryloyl-3-(cyanomethyl)piperazin-1-yl)-2-(((S)-1-methylpyrrolidin-2-yl)methoxy)-5,6-dihydropyrido[3,4-d]pyrimidin-7(81)-yl)isonicotinonitrile], for which the POC entry in assay [1] is “C (“C”>50% POC)”. Also, the IC50 in assay [2] (Homo sapiens, NCI-H358, 3 h) is > 1 µM.

`C=CC(=O)N1CCN(c2nc(OC[C@@H]3C[C@@H](F)CN3C)nc3c2CCN(c2cccc4ccccc24)C3)C[C@@H]1CC#N` [Example 306, 2-[(2S)-4-[2-[[(2S,4R)-4-fluoro-1-methyl-pyrrolidin-2-yl]methoxy]-7-(1-naphthyl)-6,8-dihydro-5H-pyrido[3,4-d]pyrimidin-4-yl]-1-prop-2-enoyl-piperazin-2-yl]acetonitrile]: the POC result in assay [1] is reported as “C (“C”>50% POC)”. For the same molecule, in assay [2] (Homo sapiens, NCI-H358, 3 h), the IC50 was 0.0001 to 1 µM.
